Source: ChEMBL document CHEMBL1126815, “Synthesis and squalene synthetase inhibitory activity of tripotassium 1-methyl-1-[(N-benzyl-N-farnesyl)aminoethylphosphinato]ethylphosphonate as a tethered analog of N-benzyl-N-farnesylamine-inorganic pyrophosphate ion pair” (Bioorg Med Chem Lett, 1993)

Molecular target: T1, Squalene synthase (Rattus norvegicus, UniProt Q02769)
T1 sequence (Q02769 whole entry): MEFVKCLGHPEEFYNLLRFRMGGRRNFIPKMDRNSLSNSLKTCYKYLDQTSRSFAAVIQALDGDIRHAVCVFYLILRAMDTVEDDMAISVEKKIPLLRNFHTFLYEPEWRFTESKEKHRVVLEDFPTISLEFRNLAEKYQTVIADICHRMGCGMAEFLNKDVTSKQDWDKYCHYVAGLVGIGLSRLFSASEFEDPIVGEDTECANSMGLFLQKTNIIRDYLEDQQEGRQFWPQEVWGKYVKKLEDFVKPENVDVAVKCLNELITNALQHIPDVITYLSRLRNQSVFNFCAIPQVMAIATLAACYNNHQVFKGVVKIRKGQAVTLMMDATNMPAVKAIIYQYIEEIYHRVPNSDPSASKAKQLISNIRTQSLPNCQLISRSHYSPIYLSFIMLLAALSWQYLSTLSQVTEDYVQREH
Experiment: Tested for the squalene synthetase inhibitory activity in rat liver microsomal assay
Format: microsomes

Row | IC50 | SMILES
1 | 0.01 µM | CC(C)=CCC/C(C)=C/CC/C(C)=C/CNCc1ccccc1.O=P(O)(O)OP(=O)(O)O
2 | 0.02 µM | CC(C)=CCC/C(C)=C/CC/C(C)=C/CN(CCP(=O)(O)C(C)(C)P(=O)(O)O)Cc1ccccc1
